Measured values as given in paper PMC4778124, “A continuous sirtuin activity assay without any coupling to enzymatic or chemical reactions” (Scientific Reports, 2016).
Where a name gives a salt, the structure may show the parent alone. Read-outs that look alike come from different tables or passages of the source. Each block holds one compound with its values, some of them ahead of it. Starred links: 1 amine or outer side, 2 acyl side, 3 side chain; linkers in the order of their positions; H or OH if unused. Positions of bridges follow the written chain, without caps; N, C: chain ends. Non-standard residues stand in square brackets, D forms with d. Residues, ends and D or L forms follow the SMILES beside them. *: point of attachment. X1 = CCCCCCCCCCCCCC(=S)N(C)CCCC[C@H](N[*:1])C(=O)[*:2]; Tfa = O=C(C(F)(F)F)*

How the values were obtained:
Sirt6 [1] = test system: Sirt6; design: method as in PMID 25004411; conditions: cited from earlier work; for inhibition of enzymatic activity: 200 μM concentration
Sirt6 [2] = biological target: T1, Sirt6 (Homo sapiens, UniProt Q8N6T7); assay: Ki determination with substrate 3, 96-well MTP fluorescence reader; format: biochemical; conditions: for type of inhibition with respect to the peptide substrate: Sirt6, substrate 3
T1 construct: His-tag; made in house; host or cells: E. coli BL21 DE3
T1 sequence (Q8N6T7 whole entry): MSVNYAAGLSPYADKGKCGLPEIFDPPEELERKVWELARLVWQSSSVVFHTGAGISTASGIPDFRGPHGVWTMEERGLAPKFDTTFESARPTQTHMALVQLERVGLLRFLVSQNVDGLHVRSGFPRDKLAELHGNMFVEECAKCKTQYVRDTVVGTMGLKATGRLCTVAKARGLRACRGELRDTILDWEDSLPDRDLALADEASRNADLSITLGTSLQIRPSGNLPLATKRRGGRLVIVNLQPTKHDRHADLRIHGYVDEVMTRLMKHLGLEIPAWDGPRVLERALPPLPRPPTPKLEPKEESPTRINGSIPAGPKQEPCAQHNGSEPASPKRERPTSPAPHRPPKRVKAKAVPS
Procedure: All measurements were done in duplicates.
(§1) Supplementary Figure S13. […] Data are presented as mean ± s.d. (n=2) and lines represent the Michaelis-Menten-plot (left) and secondary plots (right). The apparent KM or Vmax^app-1 values from v/[S] characteristics were plotted against the corresponding inhibitor concentration.
as §1, with “S14. […] The reactions were performed with 0.5 µM Sirt6 and either 500 µM NAD^+ and varying concentrations of 3 (2-100 µM).” for “S13.”, “apparent” for “apparent KM or”
Supplementary Figure S15. Kinetic characteristics for sirtuin inhibitor 8. The reactions were performed with 0.01 µM Sirt2 /0.1 µM Sirt3 /0.5 µM Sirt6 and 500 µM NAD^+ and varying concentrations of 3 (0.07-100 µM). […] Data are presented as mean ± s.d. (n=2) and lines represent the Michaelis-Menten-plot (left) and secondary plots (right). The apparent Vmax^app-1 values from v/[S] characteristics were plotted against the corresponding inhibitor concentration.

Sirt2 = biological target: T2, Sirt2 (Homo sapiens, UniProt Q8IXJ6); assay: as above; format: biochemical
T2 construct: made in house
T2 sequence (Q8IXJ6 1-389): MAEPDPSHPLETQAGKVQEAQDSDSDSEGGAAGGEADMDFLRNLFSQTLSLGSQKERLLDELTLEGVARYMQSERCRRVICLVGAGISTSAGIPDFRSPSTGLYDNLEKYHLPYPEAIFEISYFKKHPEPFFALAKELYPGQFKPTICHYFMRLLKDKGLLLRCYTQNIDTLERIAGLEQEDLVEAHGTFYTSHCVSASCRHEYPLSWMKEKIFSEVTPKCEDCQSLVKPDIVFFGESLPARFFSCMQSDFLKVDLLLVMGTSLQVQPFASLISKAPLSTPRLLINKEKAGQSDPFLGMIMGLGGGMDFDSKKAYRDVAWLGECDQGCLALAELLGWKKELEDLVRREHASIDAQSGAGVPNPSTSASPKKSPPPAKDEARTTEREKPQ
Procedure: The microtiter plate fluorescence measurements were performed on a Tecan Infinite M200 microplate reader (Maennedorf, Switzerland) at λEx = 320 nm and λEm = 408 nm (lag time 9 μs, integration time […], gain 160, 170 or 182). The reactions (total volume 100 μl) were measured in black low-binding 96-well microtiter plates (NUNC). Assay-buffer, 500 μM NAD^+ and 0.07–200 μM peptide substrate were pre-incubated at 37 °C for 5 min. The reaction was started by adding human sirtuin (0.01–0.5 μM). The signals were converted into product concentration via calibration lines and the resulting data were evaluated as described above (single fluorescence measurement). The determination for the kinetic constants of NAD^+ was performed in the same way, except that the peptide concentration was fixed (5, 25 or 200 μM) and the NAD^+ concentration was varied (10–1500 μM). All measurements were done in duplicates. The reaction mixture for the calibration lines was prepared as described for the single fluorescence measurements. […] The resulting plots were analyzed by a competitive inhibition and non-competitive inhibition model using the program Sigma Plot 8. The linear regression of the apparent KM-values against the corresponding inhibitor concentration yielded the inhibitor constant Ki for competitive inhibition. The Ki for non-competitive inhibition was determined by linear regression of 1/apparent Vmax against the corresponding inhibitor concentration. The negative Ki value can be determined as intersection with the X-axis from these plots.
Supplementary Figure S15. Kinetic characteristics for sirtuin inhibitor 8. The reactions were performed with 0.01 µM Sirt2 /0.1 µM Sirt3 /0.5 µM Sirt6 and 500 µM NAD^+ and varying concentrations of 3 (0.07-100 µM). […] The negative Ki value can be determined as intersection with the X-axis from the Vmax^app-1/I plot.
Supplementary Figure S16. […] The negative Ki value can be determined as intersection with the X-axis from the Vmax^app-1/I plot.
Supplementary Figure S17. […] The negative Ki value can be determined as intersection with the X-axis from the Vmax^app-1/I plot.

Sirt6 [3] = biological target: T1, Sirt6; assay: Isomer specific inhibition by thioxo peptides, HPLC; format: biochemical; conditions: substrate 2a
Procedure: After 30 min incubation at 20 °C reaction was stopped using 10% TFA solution. Inhibitor solutions were irradiated at 254 nm for 5 min. Separated isomers were applied in concentrations from 1 to 10 μM. The influence of cis content on sirtuin inhibition using fluorescence spectrometer was determined with 500 μM NAD^+, 5 μM 3, 0.1 μM Sirt2 and 0.1 μM 9. Reactions were done at 20 °C with 9 in GS and PSS (after 5 min irradiation at 254 nm). 9 in PSS was applied immediately after irradiation (transfer time ~5 s) and started directly by adding sirtuin. Reactions were measured within 1 min to avoid re-isomerization.
Supplementary Figure S36. Determination of IC50 value of 8 for Sirt6 in GS (?) and PSS (π). Data were fitted with U(%) = Umin(%) + (Umax(%) – Umin(%))/(1+10^(x-logIC50)) with U(%) percental turmover of substrate 2a; Umin(%) lowest turnover of substrate; Umax(%) maximal turnover of substrate (n=3).
Supplementary Figure S37. Inhibition of Sirt6 by 8 (?) and 9 (π).Data were fitted with U(%) = Umin(%) + (Umax(%) – Umin(%))/(1+10^(x-logIC50)) with U(%) percental turmover of substrate; Umin(%) lowest turnover of substrate 2a; Umax(%) maximal turnover of substrate (n=3).
Supplementary Figure S38. Determination of IC50 of 9 for Sirt6 with 72.4 % cis- (π) and 70.3 % (?) trans-content. Measurements were done with 10 µM peptide substrate (big figure) or 30 µM (small figure). Data were fitted with U(%) = Umin(%) + (Umax(%) – Umin(%))/(1+10^(x-logIC50)) with U(%) percental turmover of substrate 2a; Umin(%) lowest turnover of substrate; Umax(%) maximal turnover of substrate (n=3).

Sirt1 = biological target: T3, Sirt1 (Homo sapiens, UniProt Q96EB6); assay: HPLC based activity assay, influence of resveratrol on Sirt1 mediated deacylation of 3; format: biochemical; conditions: 0-100 µM resveratrol; Sirt1 0.5 µM, 3 20 µM, NAD+ 500 µM, 60 minutes at 37°C
T3 construct: made in house
T3 sequence (Q96EB6 1-747): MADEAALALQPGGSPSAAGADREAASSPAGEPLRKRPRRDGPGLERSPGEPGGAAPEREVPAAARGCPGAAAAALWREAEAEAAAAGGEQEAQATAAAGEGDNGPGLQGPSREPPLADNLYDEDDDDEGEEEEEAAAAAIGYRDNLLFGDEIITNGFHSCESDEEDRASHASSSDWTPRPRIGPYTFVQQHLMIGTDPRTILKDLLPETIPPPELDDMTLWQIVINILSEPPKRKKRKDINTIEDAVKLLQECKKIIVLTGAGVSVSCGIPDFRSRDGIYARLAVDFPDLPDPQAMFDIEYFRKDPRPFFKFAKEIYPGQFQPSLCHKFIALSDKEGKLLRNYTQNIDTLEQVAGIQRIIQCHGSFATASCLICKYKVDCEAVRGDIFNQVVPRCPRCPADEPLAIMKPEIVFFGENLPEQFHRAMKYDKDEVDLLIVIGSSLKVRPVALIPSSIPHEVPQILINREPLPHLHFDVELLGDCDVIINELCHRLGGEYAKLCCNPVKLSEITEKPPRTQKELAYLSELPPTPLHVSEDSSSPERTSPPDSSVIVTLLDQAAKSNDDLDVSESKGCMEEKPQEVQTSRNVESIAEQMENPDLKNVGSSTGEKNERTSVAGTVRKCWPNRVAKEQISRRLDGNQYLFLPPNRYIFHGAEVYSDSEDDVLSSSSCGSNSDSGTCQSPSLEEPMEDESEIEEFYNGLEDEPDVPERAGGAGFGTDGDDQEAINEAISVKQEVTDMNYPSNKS
Procedure: For the determination of kinetic constants for all sirtuin mediated reactions solutions containing 20 mM TRIS/HCl pH 7.8, 150 mM NaCl, 5 mM MgCl2 (assay-buffer), 500 μM NAD^+ and varying substrate concentrations (0.5–100 μM) were used. Deacylation was started by adding human sirtuin to reach a final concentration of 0.01–0.5 μM. Enzyme-catalyzed reaction was stopped using TFA (1% final concentration) after 1 min to 180 min of incubation at 37 °C depending on substrate reactivity. The cleavage rate of the different TNFα peptide derivatives was analyzed using analytical reversed phase HPLC. 40 to 80 μl of compounds or reaction solutions were injected and separated using a linear gradient from 5% to 95% solvent B within 6min. The product and substrate peaks were quantified using absorbance at 220 nm or 365 nm (absorption of 3-Nitrotyrosyl moiety). The peak areas were integrated and converted to initial velocity rates calculated from the ratio of product area to total peak area. Linear regression of conversions plotted against time yielded reaction rates in μM/min (relative conversion below 20% of substrate). […]
Supplementary Figure S4. […] Reaction was stopped using TFA (1% final concentration) and the consumption of 3 was analyzed using HPLC. […]

Structure (SMILES): NC(=O)C1CCCc2c1[nH]c1ccc(Cl)cc21 (centres unmarked) [Ex-527]
inhibition of enzymatic activity (Sirt6 [1]): 56%
Ki (Sirt6 [2]; Sirt6 0.5 µM, varying substrate 3, 500 µM NAD+ (saturating)): 100 ± 11 µM
type of inhibition with respect to the peptide substrate (Sirt6 [2]): non-competitive

Structure (SMILES): O=c1c(O)c(-c2ccc(O)c(O)c2)oc2cc(O)cc(O)c12 [Quercetin]
inhibition of enzymatic activity (Sirt6 [1]): 52%
type of inhibition with respect to the peptide substrate (Sirt6 [2]): non-competitive

Ki (Sirt2; Sirt2 0.01 µM, varying substrate 3, 500 µM NAD+, read-out: Ki (3)): 0.6 ± 0.2 µM
Ki (Sirt2; Sirt2, substrate 3, read-out: Ki-value): 0.56 µM
Structure (SMILES): CC(C)[C@@H]1NC(=O)[C@H](Cc2c[nH]cn2)NC(=O)[C@H](Cc2ccc(O)cc2)NC(=O)[C@H]([C@@H](C)O)NC(=O)[C@H](Cc2c[nH]cn2)NC(=O)[C@H](Cc2ccc(O)cc2)NC(=O)CSC[C@@H](C(N)=O)NC(=O)[C@H](Cc2ccc(O)cc2)NC(=O)[C@H](Cc2ccc(O)cc2)NC(=O)[C@H](CC(N)=O)NC(=O)[C@H]([C@@H](C)O)NC(=O)[C@H](CCCNC(=N)N)NC(=O)[C@H](CCCNC(=N)N)NC(=O)[C@H](CCCCNC(=O)C(F)(F)F)NC1=O [S2iL5] ({CH2CO}-YHTYHVK(Tfa)RRTNYYC-NH2; thioether N-14)

IC50 (Sirt6 [3]; inhibitor with 29.7% cis isomer (HPLC-separated)): 1.7 ± 0.5 µM
IC50 (Sirt6 [3]; inhibitor with 72.4% cis isomer (HPLC-separated)): 0.6 ± 0.1 µM
Structure (SMILES): CCCCCCCCCCCCCC(=S)N(C)CCCC[C@H](NC(=O)[C@H](CCCCN)NC(=O)[C@@H]1CCCN1C(=O)[C@H](CC(C)C)NC(=O)[C@H](C)NC(=O)[C@H](CCC(=O)O)NC(C)=O)C(=O)N[C@H](C(=O)NCC(=O)NCC(N)=O)[C@@H](C)O [compound 9] (Ac-EALPK[X1]TGG-NH2)

influence on Sirt1 mediated deacylation of 3 (Sirt1): no significant influence
Structure (SMILES): Oc1ccc(/C=C/c2cc(O)cc(O)c2)cc1 [resveratrol]
